Here are results for 31 compounds from US10738056B2 (Aduro BioTech, Inc., priority 2017, dated 2020).

Where only a bound is given, the exact number is not on record here.

Sequence of Human cGAS amino acids 155-522 (Q8N884 157-522): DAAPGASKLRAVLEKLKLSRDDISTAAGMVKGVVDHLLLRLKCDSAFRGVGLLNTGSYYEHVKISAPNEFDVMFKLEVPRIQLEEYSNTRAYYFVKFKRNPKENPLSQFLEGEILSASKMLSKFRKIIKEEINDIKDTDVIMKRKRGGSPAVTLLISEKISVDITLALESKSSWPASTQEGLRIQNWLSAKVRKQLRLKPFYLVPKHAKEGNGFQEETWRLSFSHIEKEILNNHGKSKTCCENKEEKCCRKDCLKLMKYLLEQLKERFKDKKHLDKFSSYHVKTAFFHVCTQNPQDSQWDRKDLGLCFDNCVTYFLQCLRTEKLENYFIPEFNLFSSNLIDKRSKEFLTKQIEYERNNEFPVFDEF

This test concerns the target Human cGAS amino acids 155-522 (Homo sapiens (Human), UniProt Q8N884). As to the kind of experiment: cGAS biochemical activity assay (ATP remaining, Kinase-Glo Max luminescence). The conditions noted are these: human cGAS 155-522, ATP remaining (Kinase-Glo Max); read-out: cGAS IC50.
Turning to `COc1ncccc1NC(=O)c1c(C)[nH]c2c(-c3ccccc3)c(C(F)(F)F)nn2c1=O` [Compound A1093, N-(2-methoxypyridin-3-yl)-5-methyl-7-oxo-3-phenyl-2-(trifluoromethyl)-4,7-dihydropyrazolo[1,5-a]pyrimidine-6-carboxamide], the IC50 lay within 20 to 250 µM.

Regarding `COc1cncc(NC(=O)c2c(C)[nH]c3c(-c4ccccc4)c(C(F)(F)F)nn3c2=O)c1` [Compound A1094, N-(5-methoxypyridin-3-yl)-5-methyl-7-oxo-3-phenyl-2-(trifluoromethyl)-4,7-dihydropyrazolo[1,5-a]pyrimidine-6-carboxamide], the half-inhibitory concentration (IC50) was less than 20 µM.

Consider `COc1nccnc1NC(=O)c1c(C)[nH]c2c(-c3ccccc3)c(C(F)(F)F)nn2c1=O` [Compound A1097, N-(3-methoxypyrazin-2-yl)-5-methyl-7-oxo-3-phenyl-2-(trifluoromethyl)-4,7-dihydropyrazolo[1,5-a]pyrimidine-6-carboxamide], for which the IC50 was 20 to 250 µM.

`COc1cncc(NC(=O)c2c(C)[nH]c3c(-c4ccccc4)c(C(F)(F)F)nn3c2=O)n1` [Compound A1098, N-(6-methoxypyrazin-2-yl)-5-methyl-7-oxo-3-phenyl-2-(trifluoromethyl)-4,7-dihydropyrazolo[1,5-a]pyrimidine-6-carboxamide]: the IC50 fell in the range of 20 to 250 µM.

Regarding `COc1ccncc1NC(=O)c1c(C)[nH]c2c(-c3ccccc3)c(C(F)(F)F)nn2c1=O` [Compound A1103, N-(4-methoxypyridin-3-yl)-5-methyl-7-oxo-3-phenyl-2-(trifluoromethyl)-4,7-dihydropyrazolo[1,5-a]pyrimidine-6-carboxamide], the IC50 is 20 to 250 µM.

With `COc1ccnc(NC(=O)c2c(C)[nH]c3c(-c4ccccc4)c(C)nn3c2=O)c1` [Compound A1105, N-(4-methoxypyridin-2-yl)-2,5-dimethyl-7-oxo-3-phenyl-4,7-dihydropyrazolo[1,5-a]pyrimidine-6-carboxamide], the concentration for half-maximal inhibition (IC50) was less than 20 µM.

Turning to `Cc1[nH]c2c(-c3ccccc3)c(C(F)(F)F)nn2c(=O)c1C(=O)Nc1ccc(S(C)(=O)=O)cn1` [Compound A1108, 5-methyl-N-(5-(methylsulfonyl)pyridin-2-yl)-7-oxo-3-phenyl-2-(trifluoromethyl)-4,7-dihydropyrazolo[1,5-a]pyrimidine-6-carboxamide], the IC50 lay within 20 to 250 µM.

Turning to `Cc1[nH]c2c(-c3ccccc3)c(C(F)(F)F)nn2c(=O)c1C(=O)Nc1cnccc1S(C)(=O)=O` [Compound A1109, 5-methyl-N-(4-(methylsulfonyl)pyridin-3-yl)-7-oxo-3-phenyl-2-(trifluoromethyl)-4,7-dihydropyrazolo[1,5-a]pyrimidine-6-carboxamide], the IC50 fell in the range of 20 to 250 µM.

For `COc1cccc(N(C)C(=O)c2c(C)[nH]c3c(-c4ccccc4)c(C(F)(F)F)nn3c2=O)c1` [Compound A1114, N-(3-methoxyphenyl)-N,5-dimethyl-7-oxo-3-phenyl-2-(trifluoromethyl)-4,7-dihydropyrazolo[1,5-a]pyrimidine-6-carboxamide], the IC50 was greater than 250 µM.

As to `Cc1[nH]c2c(-c3ccccc3)c(C(F)(F)F)nn2c(=O)c1C(=O)Nc1ccccc1NS(=O)(=O)C1CCCCC1` [Compound A1119, N-(2-(cyclohexanesulfonamido)phenyl)-5-methyl-7-oxo-3-phenyl-2-(trifluoromethyl)-4,7-dihydropyrazolo[1,5-a]pyrimidine-6-carboxamide], the IC50 fell in the range of 20 to 250 µM.

With `COc1cccc(NC(=O)c2c(C)[nH]c3c(-c4ccccc4)c(SC)nn3c2=O)c1` [Compound A1122, N-(3-methoxyphenyl)-5-methyl-2-(methylthio)-7-oxo-3-phenyl-4,7-dihydropyrazolo[1,5-a]pyrimidine-6-carboxamide], the IC50 is 20 to 250 µM.

`COc1cccc(NC(=O)c2c(C)[nH]c3c(-c4ccccc4)c(C4CC4)nn3c2=O)c1` [Compound A1123, 2-cyclopropyl-N-(3-methoxyphenyl)-5-methyl-7-oxo-3-phenyl-4,7-dihydropyrazolo[1,5-a]pyrimidine-6-carboxamide]: the 50% inhibitory concentration (IC50) is greater than 250 µM.

Take `COc1cccc(NC(=O)c2c(C)[nH]c3c(-c4ccccc4)c(S(C)(=O)=O)nn3c2=O)c1` [Compound A1126, N-(3-methoxyphenyl)-5-methyl-2-(methylsulfonyl)-7-oxo-3-phenyl-4,7-dihydropyrazolo[1,5-a]pyrimidine-6-carboxamide]: the IC50 was greater than 250 µM.

For `COc1c(Br)cccc1NC(=O)c1c(C)[nH]c2c(-c3ccccc3)c(C(F)(F)F)nn2c1=O` [Compound A1130, N-(3-bromo-2-methoxyphenyl)-5-methyl-7-oxo-3-phenyl-2-(trifluoromethyl)-4,7-dihydropyrazolo[1,5-a]pyrimidine-6-carboxamide], the IC50 is 20 to 250 µM.

Turning to `COc1cccc(NC(=O)c2c(C)[nH]c3c(-c4ccccc4)c(C(F)(F)F)nn3c2=O)c1Br` [Compound A1131, N-(2-bromo-3-methoxyphenyl)-5-methyl-7-oxo-3-phenyl-2-(trifluoromethyl)-4,7-dihydropyrazolo[1,5-a]pyrimidine-6-carboxamide], the IC50 lay within 20 to 250 µM.

For `COc1cc(F)cc(NC(=O)c2c(C)[nH]c3c(-c4ccccc4)c(C(F)(F)F)nn3c2=O)c1` [Compound A1133, N-(3-fluoro-5-methoxyphenyl)-5-methyl-7-oxo-3-phenyl-2-(trifluoromethyl)-4,7-dihydropyrazolo[1,5-a]pyrimidine-6-carboxamide], the IC50 was less than 20 µM.

For the compound `COc1c(F)cccc1NC(=O)c1c(C)[nH]c2c(-c3ccccc3)c(C(F)(F)F)nn2c1=O` [Compound A1137, N-(3-fluoro-2-methoxyphenyl)-5-methyl-7-oxo-3-phenyl-2-(trifluoromethyl)-4,7-dihydropyrazolo[1,5-a]pyrimidine-6-carboxamide], the IC50 was in the range of 20 to 250 µM.

With `COc1c(Cl)cccc1NC(=O)c1c(C)[nH]c2c(-c3ccccc3)c(C(F)(F)F)nn2c1=O` [Compound A1138, N-(3-chloro-2-methoxyphenyl)-5-methyl-7-oxo-3-phenyl-2-(trifluoromethyl)-4,7-dihydropyrazolo[1,5-a]pyrimidine-6-carboxamide], the IC50 fell in the range of 20 to 250 µM.

As for `Cc1[nH]c2c(-c3ccccc3)c(C(F)(F)F)nn2c(=O)c1C(N)=O` [Compound A1140, 5-methyl-7-oxo-3-phenyl-2-(trifluoromethyl)-4,7-dihydropyrazolo[1,5-a]pyrimidine-6-carboxamide], the 50% inhibitory concentration (IC50) was 20 to 250 µM.

As for `Cc1[nH]c2c(-c3ccccc3)c(C(F)(F)F)nn2c(=O)c1CC(=O)Nc1ccccc1N` [Compound B1001, N-(2-aminophenyl)-2-(5-methyl-7-oxo-3-phenyl-2-(trifluoromethyl)-4,7-dihydropyrazolo[1,5-a]pyrimidin-6-yl)acetamide], the IC50 was in the range of 20 to 250 µM.

Turning to `Cc1[nH]c2c(-c3ccccc3)c(C(F)(F)F)nn2c(=O)c1CC(=O)N1CCOCC1` [Compound B1002, 5-methyl-6-(2-morpholino-2-oxoethyl)-3-phenyl-2-(trifluoromethyl)pyrazolo[1,5-a]pyrimidin-7(4H)-one], the concentration for half-maximal inhibition (IC50) is greater than 250 µM.

Regarding `COCCNC(=O)Cc1c(C)[nH]c2c(-c3ccccc3)c(C(F)(F)F)nn2c1=O` [Compound B1003, N-(2-methoxyethyl)-2-(5-methyl-7-oxo-3-phenyl-2-(trifluoromethyl)-4,7-dihydropyrazolo[1,5-a]pyrimidin-6-yl)acetamide], the half-maximal inhibitory concentration (IC50) is greater than 250 µM.

For the compound `Cc1[nH]c2c(-c3ccccc3)c(C(F)(F)F)nn2c(=O)c1CC(=O)Nc1ccncc1` [Compound B1004, 2-(5-methyl-7-oxo-3-phenyl-2-(trifluoromethyl)-4,7-dihydropyrazolo[1,5-a]pyrimidin-6-yl)-N-(pyridin-4-yl)acetamide], the 50% inhibitory concentration (IC50) fell in the range of 20 to 250 µM.

In the case of `Cc1[nH]c2c(-c3ccccc3)c(C(F)(F)F)nn2c(=O)c1CC(=O)Nc1ccccc1` [Compound B1005], the IC50 lay within 20 to 250 µM.

As for `COc1ccc(NC(=O)Cc2c(C)[nH]c3c(-c4ccccc4)c(C(F)(F)F)nn3c2=O)cc1` [Compound B1006, N-(4-methoxyphenyl)-2-(5-methyl-7-oxo-3-phenyl-2-(trifluoromethyl)-4,7-dihydropyrazolo[1,5-a]pyrimidin-6-yl)acetamide], the concentration for half-maximal inhibition (IC50) was in the range of 20 to 250 µM.

Take `Cc1[nH]c2c(-c3ccccc3)c(C(F)(F)F)nn2c(=O)c1CC(=O)N1CCN(c2ccccc2)CC1` [Compound B1007, 5-methyl-6-(2-oxo-2-(4-phenylpiperazin-1-yl)ethyl)-3-phenyl-2-(trifluoromethyl)pyrazolo[1,5-a]pyrimidin-7(4H)-one]: the IC50 is greater than 250 µM.

As to `Cc1[nH]c2c(-c3ccccc3)c(C(F)(F)F)nn2c(=O)c1CC(=O)Nc1cccnc1` [Compound B1008, 2-(5-methyl-7-oxo-3-phenyl-2-(trifluoromethyl)-4,7-dihydropyrazolo[1,5-a]pyrimidin-6-yl)-N-(pyridin-3-yl)acetamide], the IC50 was 20 to 250 µM.

Turning to `Cc1ccc(CN2CCN(C(=O)Cc3c(C)[nH]c4c(-c5ccccc5)c(C(F)(F)F)nn4c3=O)CC2)cc1` [Compound B1009, 5-methyl-6-(2-(4-(4-methylbenzyl)piperazin-1-yl)-2-oxoethyl)-3-phenyl-2-(trifluoromethyl)pyrazolo[1,5-a]pyrimidin-7(4H)-one], the concentration for half-maximal inhibition (IC50) is greater than 250 µM.

In the case of `CC(=O)NCCc1c(C)[nH]c2c(-c3ccccc3)c(C(F)(F)F)nn2c1=O` [Compound B1013, N-(2-(5-methyl-7-oxo-3-phenyl-2-(trifluoromethyl)-4,7-dihydropyrazolo[1,5-a]pyrimidin-6-yl)ethyl)acetamide], the IC50 lay within 20 to 250 µM.

As to `Cc1[nH]c2c(-c3ccccc3)c(C(F)(F)F)nn2c(=O)c1CCNC(=O)c1ccccc1` [Compound B1014, N-(2-(5-methyl-7-oxo-3-phenyl-2-(trifluoromethyl)-4,7-dihydropyrazolo[1,5-a]pyrimidin-6-yl)ethyl)benzamide], the IC50 was in the range of 20 to 250 µM.

In the case of `COc1cccc(NCCc2c(C)[nH]c3c(-c4ccccc4)c(C(F)(F)F)nn3c2=O)c1` [Compound B1015, 6-(2-((3-methoxyphenyl)amino)ethyl)-5-methyl-3-phenyl-2-(trifluoromethyl)pyrazolo[1,5-a]pyrimidin-7(4H)-one], the IC50 was less than 20 µM.
